From patent US20170107179A1 (Tetraphase Pharmaceuticals, Inc., priority 2010, published 2017)

Tested on: Gram-negative and Gram-positive organisms (clinical isolates)
Assay: Broth microdilution MIC against clinical isolates (CLSI M7-A8), Table 9
Type: cell-based

Compound: CN(C)c1cc(NC(=O)CNC(C)(C)C)c(O)c2c1C[C@H]1C[C@H]3[C@H](N(C)C)C(O)=C(C(N)=O)C(=O)[C@@]3(O)C(O)=C1C2=O [Tigecycline, tigecycline]
- MICs against tetracycline resistant isolates relative to tetracycline susceptible isolates: not notably altered
